Experimental data published in patent US8071810B2, “C5a receptor antagonists” (Jerini AG, priority 2005, dated 2011).
pIC50: −log10 of the molar value. ≈ marks a conversion by molar mass, not a printed value. Read-outs that look alike come from different tables or passages of the source.

Tests used:
[1] = AB permeability in TC-7 cell based assay (Example 34); format: in vitro ADME; conditions: human, Caco-2, TC-7 cells, apical pH 6.5 / basolateral pH 7.4, 120 min
Experimental: Compounds to be tested are prepared at a concentration of 50 μM in HBSS-MES (5 mM, pH 6.5) (from a 10 mM stock solution in 100% DMSO). ^14C-mannitol (about 4 μM) is added and the solution is mixed and centrifuged. The supernatant is added to the apical side of a TC-7 cell culture (passage 15, in 24 well transwell plate) to obtain a DMSO concentration of 1%. At the basolateral side HBSS-HEPES (5 mM, pH 7.4) is placed. Subsequently, the cells are incubated for 120 minutes at 37° C. The integrity of the TC-7 cell layer is checked by means of the added mannitol (Papp <2.5 10^−6 cm/s). The Permeabilität Papp [cm/s] is equal to (VR×CR120)/(Δt×A×(CD,mid−CR,mid)). VR is the volume of the receiver chamber, CR120 the concentration the test compound in the receiver chamber after 120 minutes, Δt the incubation time, A the area of the TC-7 cell layer, CD,mid the midpoint concentration of the test substance in the donor chamber and CR,mid the concentration of the test compound in the receiver chamber.

[2] = system: E. coli induced oxidative burst in human whole blood; assay: E. coli induced oxidative burst in human whole blood (Phagoburst kit, Example 26); format: cell-based; conditions: read-out: IC50 for the inhibition of the E. coli induced oxidative burst in human whole blood
Experimental: The whole blood assay is carried out according to the instructions from the Phagoburst-Kit (Orpegen Pharma). 50 μg/ml of Refludan is used to inhibit blood clotting (Mollnes et al. 2002 Blood 100: 1869). Freshly drawn, anticoagulated blood is cooled over ice and 100 μl thereof are added to 10 μl of the compound solution containing at most 1.3% of DMSO. The mixture is incubated for 10 minutes at 37° C. After this the samples are put on ice again and 20 μl of opsonisated E. coli suspension (10^9 cells/ml) is added followed by 10 minutes of incubation at 37° C. 20 μl of the substrate are added to the cells followed by another 10 minutes of incubation at 37° C. After this 2 ml of lysis buffer are added to the cells, which are then kept at room temperature for 20 minutes. The cellular components are separated by centrifugation at 250×g for 5 minutes. The supernatant is discarded and 3 ml of washing solution are added to the pellet. The cells are centrifuged again and the resulting pellet is taken up in 200 μl DNA staining solution. The neutrophiles are analysed by means of a FACS device (FACSCalibur, Becton-Dickinson) according to the parameters given in the manual. […] It can be seen that, due to the determined activity, the compounds of this invention are suited to be used as therapeutics in human.

[3] = target: T1, human C5a receptor (CD88) (Homo sapiens, UniProt P21730); assay: Agonism in enzyme release assay without C5a stimulus (Example 32); format: cell-based; conditions: concentration applied 7.1 μM
T1 construct: expressed in transfected cells; host or cells: rat basophilic leukemia (RBL) cells, stably transfected
T1 sequence (P21730 1-350): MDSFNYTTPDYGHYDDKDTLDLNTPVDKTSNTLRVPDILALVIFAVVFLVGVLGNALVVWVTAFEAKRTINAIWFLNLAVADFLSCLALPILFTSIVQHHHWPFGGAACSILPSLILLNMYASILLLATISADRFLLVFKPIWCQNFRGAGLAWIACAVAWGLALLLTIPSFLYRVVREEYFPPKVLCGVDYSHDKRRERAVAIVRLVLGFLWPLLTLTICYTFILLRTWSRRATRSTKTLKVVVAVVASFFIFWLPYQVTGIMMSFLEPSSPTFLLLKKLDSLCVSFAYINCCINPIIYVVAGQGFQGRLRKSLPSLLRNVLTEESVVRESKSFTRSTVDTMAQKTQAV
Experimental: The assay has been described by Köhl (Köhl 1997 The Anaphylatoxins. In: Dodds, A. W., Sim, R. B. (Eds.), Complement: A Practical Approach. Oxford: 135). Basophile leukemia cells from rats (RBL), which express the human C5a receptor (CD88), are cultivated in DMEM with 10% fetal calf serum, 100 U/ml penicillin, 100 μg/ml streptomycin and 2 mM glutamin (all constituents are from Biochrome, Berlin) at 37° C. and with 10% CO2 until a confluent layer is obtained. All following details refer to a tissue culture flask with 75 cm^2 surface. The used up medium is removed. The cells are washed with 10 ml PBS (Dulbecco's PBS, Biochrome) and then covered with 3 ml cell dissociation solution (CDS, Sigma). The cells are incubated for 1 minute at room temperature. Then the CDS is removed and the cells are incubated for further 10-15 minutes at 37° C. to detach the cells completely from the flask. 20 μl solution of the compound to be testet are used in the assay. The assay solution must not contain more than 2.8% DMSO. The dilution series are prepared in ⅓ or ½ steps. To the 20 μl of the compound solutions 75 μl RBL cells are added which are prepared as follows: After the detachment of the cells from the flask surface they are taken up with 10 ml HAG-CM (20 mM HEPES; 125 mM NaCl, 5 mM KCl, 1 mM CaCl2, 1 mM MgCl2, 0.5 mM glucose, 0.25% BSA. HEPES preparation: 2.3 g/l HEPES salt+2.66 g/l HEPES acid) thermostated at 37° C. The cells are counted and centrifuged (200 g, 10 min). The cell pellet is taken up with pre-heated HAG-CM, and the cell density is adjusted to 2×10^6 Zellen/ml. The cells are incubated for 5 minutes at 37° C. 2.7 μl of a cytochalasin B solution (1000 μg/ml in DMSO, Sigma) are added per ml cell suspension. The Zellen are incubated for another 3 min at 37° C. Then, 75 μl of the cell suspension are added to the 20 μl solution containing the compounds to be tested. Thus a volume of […] per well is obtained. The cells are again incubated for 10 minutes at 37° C. Then 10 μl hrC5a (10.5 nM in HAG-CM, Sigma) are added per well, which is followed by 5 minutes incubation at 37° C. After this the plates are put on ice and centrifuged for 3 minutes at 1200×g and 4° C. 75 μl of the supernatant are added to 100 μl substrate solution (2.7 mg/ml p-nitrophenyl-N-acetyl-b-D-glucosaminide (Sigma) in 42.5 mM sodium acetate, pH 4.5). The plate is incubated for 1 hour at 37° C. Per well 75 μl 0.4 M glycine (pH 10.4) are added. After this the plate can be measured at a wave length of 405 nm. The IC50 value is determined by solving the four parameter equation y=((A−D)/(1+(x/C)^B))+D.
The only difference is the fact that 30 μl of the substance to be tested are mixed with 75 μl of the cell suspension described in example 28. The cells are not pre-incubated and no C5a is added to stimulate enzyme release.

[4] = target: T1, human C5a receptor (CD88); assay: C5a induced enzyme (glucosaminidase) release assay in RBL cells expressing the human C5a receptor (Example 28); format: cell-based; conditions: for pIC50: RBL cells with human C5aR
Outline: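 Rat basophilic leukemia (RBL) cells expressing human C5a receptor, at 2×10^6 cells/ml, primed with cytochalasin B, then incubated with test compound 10 min at 37 °C.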

C5a receptor [5] = target: T2, C5a receptor (Homo sapiens, UniProt P21730); conditions: cited from earlier work
T2 sequence (P21730 1-350): T1 sequence (P21730 1-350)

C5a receptor [6] = target: T2, C5a receptor; assay: Binding of 125I-C5a to human C5aR transfected HEK293 cells (Example 27); design: expressed in transfected cells; host or cells: HEK293 cells; conditions: 125I-C5a tracer, read-out: IC50 for the inhibition of the binding of C5a to the C5a receptor
Experimental: The binding studies are done as determination of IC50 values with radioactively labeled C5a (125I) as tracer. For this purpose, human C5aR transfected HEK293 cells are adjusted to a concentration of […]. 30 μl of the cell suspension are added into a microtiter plate. Then the C5a receptor antagonists are added followed by 10 minutes pre-incubation at room temperature. After that, 10 μl of labelled C5a are added (15.000 cpm). The mixture is now incubated over ice for 30 minutes. After this the cells are isolated by means of a filter plate (Millipore MHVB 4510) and washed two times with 100 μl HAG-CM each (see example 32). The cells are dried and, after transferring the filter plate onto the adapter plate (Canberra 6005178), 50 μl/well Microscint 0 are added and the plate is measured in the scintillation counter.

[7] = Solubility in aqueous HEPES buffer by HPLC (Example 33); format: physicochemical; conditions: kinetic from dmso stock
Experimental: To determine the solubility the compound to be measured is dissolved (e.g, […] of a 5 mM solution in DMSO) in organic solvent (e.g. 198 μl DMSO) as well as in aqueous buffer solution (e.g. 198 μl HEPES buffer). Both solutions are analyzed via analytical HPLC and the areas under the peaks are compared. The value for the organic solution is taken as 100%.

[8] = read-out: IC50 for the inhibition of C5a induced enzyme release
[9] = inhibition of C5a induced enzyme release, read-out: Activity-range (antagonistic activity, IC50 enzyme release)
[10] = ratio of enzyme release IC50 values

Row | Compound | pIC50 [2] | Agonism (% of the maximum enzyme release induced by C5a) [3] [%] | pIC50 [4, 8] | pIC50 [4, 9] | pIC50 (C5a receptor [6]) | further results
1 | CCc1c(N)cc(Cl)c(CC)c1NC(=O)N(c1ccc(OC)cc1F)[C@@H](C)c1ccc(Cl)cc1 [compound 102, (S)-3-(3-amino-5-chloro-2,6-diethyl-phenyl)-1-[1-(4-chloro-phenyl)-ethyl]-1-(2-fluoro-4-methoxy-phenyl)-urea] | 5.49 | 0.00 |  |  |  | Papp A→B at 120 min, 50 μM [1]: 1.1 ×10⁻⁶ cm/s
2 | CN(CC(=O)N(Cc1ccccc1F)C1Cc2ccccc2C1)C(c1ccccc1)c1ccccc1 [Compound 10, 2-(Benzhydryl-methyl-amino)-N-(2-fluoro-benzyl)-N-indane-2-yl-acetamide, reference compound] |  |  | < 5.32 | < 5.30 |  | activity, inhibition of C5a induced calcium mobilization (C5a receptor [5]): 465 nM
3 | CCc1c(N)cc(Cl)c(CC)c1NC(=O)N(c1ccc(C(C)C)cc1)C1CCc2cc(Cl)ccc21 (centres unmarked) [compound 88, 3-(3-amino-5-chloro-2,6-diethyl-phenyl)-1-(5-chloro-indane-1-yl)-1-(4-isopropyl-phenyl)-urea] |  |  |  | 6.70 to 7.22 | 7.36 | 
4 | Cc1ccccc1C1c2ccccc2CCN1CC(=O)N(Cc1cccc(O)c1)C1Cc2ccccc2C1 (centres unmarked) [Compound 9, N-(3-Hydroxy-benzyl)-N-indane-2-yl-2-(1-o-tolyl-3,4-dihydro-1H-isochinolin-2-yl)-acetamide, reference compound] |  |  | 5.15 |  |  | activity, inhibition of C5a induced calcium mobilization (C5a receptor [5]): 24 nM
5 | CCc1c(N)cc(Cl)c(CC)c1NC(=O)N(Cc1ccc(Cl)cc1)c1ccc(OC)c2cccnc12 [compound 125, 3-(3-amino-5-chloro-2,6-diethyl-phenyl)-1-(4-chloro-benzyl)-1-(5-methoxy-chinolin-8-yl)-urea] |  | 0.00 |  | 6.70 to 7.22 |  | Papp A→B at 120 min, 50 μM [1]: 2.9 ×10⁻⁶ cm/s; solubility [7]: 4 µM (≈ 2.09 µg/mL)
6 | CCc1c(N)cc(Cl)c(CC)c1NC(=O)N(Cc1ccc(OC)cc1)c1ccc(C(C)C)cc1 [compound 31, 3-(3-amino-5-chloro-2,6-diethyl-phenyl)-1-(4-isopropyl-phenyl)-1-(4-methoxy-benzyl)-urea] |  | 0.12 | 6.79 |  |  | Increase of the antagonistic activity by a factor (vs compound 24, NH2 group introduced) [4, 10]: 6.4; solubility [7]: 2 µM (≈ 0.96 µg/mL)
7 | CCc1c(N)cc(Cl)c(CC)c1NC(=O)N(Cc1ccc(Cl)cc1)c1ccc(NC)cc1 [compound 120, 3-(3-amino-5-chloro-2,6-diethyl-phenyl)-1-(4-chloro-benzyl)-1-(4-methylamino-phenyl)-urea] | 5.72 |  |  |  | 7.06 | Improvement of the antagonistic activity by a factor (vs compound 98, CH2 exchanged by NH) [4, 10]: 4.5
8 | CCc1c(N)cc(Cl)c(CC)c1NC(=O)N(c1ccc(NC)cc1)[C@@H](C)c1ccccc1 [compound 132, (S)-3-(3-amino-5-chloro-2,6-diethyl-phenyl)-1-(4-methylamino-phenyl)-1-(1-phenyl-ethyl)-urea] | 6.21 |  |  | > 7.22 | 7.36 | 
9 | CCc1c(N)cc(Cl)c(CC)c1NC(=O)N(Cc1ccc(Cl)cc1)c1ccc(OC)c(OC)c1 [compound 114, 3-(3-amino-5-chloro-2,6-diethyl-phenyl)-1-(4-chloro-benzyl)-1-(3,4-dimethoxy-phenyl)-urea] |  |  |  | 5.30 to 6.70 |  | 
10 | CCc1c(N)cc(Cl)c(CC)c1NC(=O)N(c1ccc(C(C)C)cc1)[C@@H]1CCCc2ccccc21 [compound 41, (R)-3-(3-amino-5-chloro-2,6-diethyl-phenyl)-1-(4-isopropyl-phenyl)-1-(1,2,3,4-tetrahydro-naphthaline-1-yl)-urea] |  |  |  | 5.30 to 6.70 |  | 
